Test results published in US9656953B2, “Inhibition of cell proliferation” (University of South Florida, priority 2005, dated 2017).
“Also recorded” adds a separate entry of the source.

Legend:
[1] = system: Saos-2 cells; assay: BrdU incorporation, S-phase entry, Saos-2; format: cell-based; settings: 20 μM, 18 hours, Rb null
Method: (§1) Proliferation assays. Bromodeoxyuridine (BrdU) labeling kits were obtained from Roche Biochemicals (Indianapolis, Ind.). Cells were plated in poly-D-lysine coated chamber slides at a density of 10,000 cells per well and rendered quiescent by serum starvation for 24 hours. Cells were then re-stimulated with serum in the presence or absence of the indicated drugs for 18 h. S-phase cells were visualized by microscopy and quantitated by counting 3 fields of 100 in quadruplicate.
Given the selectivity of 3a described in FIGS. 1 and 2 above for disrupting the Rb:Raf-1 interaction, it was examined if 3a can inhibit the proliferation of cells and whether such an inhibition required a functional Rb gene.

[2] = system: A549 cells stably expressing sh6; assay: BrdU incorporation, A549 Rb shRNA sh6; format: cell-based, human; settings: 20 μM, Rb knock down
Method: as §1
(§2) To further confirm that 3a requires a functional Rb to inhibit tumor cell proliferation, A549 cells (human epithelial lung carcinoma) were stably transfected with two different shRNA constructs (sh6 and sh8) to knock down Rb expression.

[3] = system: A549 cells stably expressing sh8; assay: BrdU incorporation, A549 Rb shRNA sh8; format: cell-based, human; settings: 20 μM, Rb knock down
Method: as §1, §2

[4] = system: H1650 cells; assay: Soft agar assay, H1650; format: cell-based
Method: (§3) Soft Agar Assay. Soft agar assays were done in triplicate in 12-well plates (Corning, Corning N.Y.). First, the bottom layer of agar (0.6%) was allowed to solidify at room temperature. Next the top layer of agar was (0.3%) was mixed with 5,000 cells per well and the indicated drug. The drugs were added twice weekly in complete media to the agar wells. Colonies were quantified by staining with MTT (3-(4,5-Dimethylthiazol-2-yl)-2,5-diphenyltetrazolium bromide) 1 mg/mL for 1 hour at 37° C.
(§4) Experiments were also carried out to examine the effect of 3a in inhibiting the adherence-independent growth of cancer cells in soft agar.

[5] = system: A549 cells; assay: BrdU incorporation, S-phase entry, A549; format: cell-based, human; settings: 20 μM
Method: as §1, §2

[6] = system: LNCaP prostate cell line; assay: BrdU proliferation assay, LNCaP; format: cell-based
Method: as §1
Prostate cell lines LNCaP and PC3 both contain mutations in K-Ras and PTEN genes.

[7] = system: SK-MEL-28 cells; assay: Soft agar assay, SK-MEL-28; format: cell-based
Method: as §3, §4

[8] = system: cyclin D kinase activity; assay: In vitro kinase assay, cyclin D; format: biochemical
Method: In vitro kinase assay. The kinase reaction for Raf-1 was carried out with 100 nanograms (ng) of Raf-1 (Upstate Signaling, Charlottesville, Va.), 0.5 μg of full-length Rb protein (QED Bioscience, San Diego, Calif.) as the substrate, 10 μM ATP, 10 μCi of [γ-^32P] ATP in the kinase assay buffer in the presence or absence of the drugs at 30° C. for 30 minutes. Cyclin D and E kinase assays are described in (Dasgupta 2004).

[9] = target: T1, Rb binding to E2F1 (Homo sapiens, UniProt P06400+Q01094); assay: IP-western, A-549 cells, Rb-E2F1; format: cell-based
T1 construct: endogenous in cells; host or cells: A549
Excerpt: (§5) Lysate preparation, pmmunoprecipitation, and pestern plotting.

[10] = system: A549-sh6 tumors; assay: A549-sh6 (Rb shRNA) xenograft in nude mice; format: in vivo; settings: 150 mpk orally
Method: (§6) Animal Studies. Nude mice (Charles River, Wilminton, Mass., USA) were maintained in accordance with Institutional Animal Care and Use Committee (IAUCUC) procedures and guidelines. A549 cells were harvested and resuspended in PBS, and then injected s.c. into the right and left flanks (10×10^6 cells per flank) of 8-week old female nude mice as reported previously (Sun 99). When tumors reached about 100-200 mm^3, animals were dosed intraperitoneally i.p. or orally by gavage with 0.1 mL solution once daily. Control animals received a vehicle, whereas treated animals were given 3a or RRD-238a at the indicated doses. The tumor volumes were determined by measuring the length (l) and the width (w) and calculating the volume (V=lw^2/2) as described previously (Sun 99). Statistical significance between control and treated animals were evaluated using Student's t-test.
(§7) Athymic nude mice were implanted with 1×10^7 A549 cells bilaterally and the tumors were allowed to reach 200 mm^3 in size before treatment began. […] Furthermore, to examine whether 3a could affect the growth of tumors lacking Rb in vivo, sh6 and sh8 (shRNA for Rb) cell lines were implanted into the flanks of nude mice. The mice were given 3a orally at 150 mpk and the control groups were administered the vehicle.

[11] = system: PANC1 cells; assay: Soft agar assay, PANC1; format: cell-based
Method: as §3, §4

[12] = system: cyclin D; assay: Western/IP-western, cyclin D level and association with Rb; format: cell-based, human; settings: IP-western
Excerpt: as §5

[13] = system: cdc6, cdc25A and TS promoters; assay: Chromatin immunoprecipitation (ChIP) assay, A549 cells; format: cell-based, human; settings: 20 μM
Method: Chromatin immunoprecipitation (ChIP) assay. A549 cells were rendered quiescent by serum starvation and re-stimulated with serum for 2h or 16h in the presence or absence of RRD 251 at 20μM. Cells were cross-linked with 1% formaldehyde for 10 minutes at room temperature. Subsequently, the cells were harvested and lysates were prepared. Immunoprecipitations were analyzed for the presence of E2F1, Rb, Raf-1, Brg1, HP1, and HDAC1 by PCR as previously described (Dasgupta 2004). Rabbit anti-mouse secondary antibody was used as the control for all reactions. The sequences of the PCR primers used in the PCRs were as follows: Cdc6 promoter (forward primer), 5′- […]-3′ (SEQ ID NO:1); and Cdc6 promoter (reverse primer), 5′-[…]-3′ (SEQ ID NO:2). TS promoter (forward primer), and 5′-GAC GGA GGC AGG CCA AGT G-3′ SEQ ID NO:3) TS promoter (reverse primer). The cdc25A and c-fos primers are described in (Dasgupta, 2004).
Since serum is known to stimulate the binding of Raf-1 to Rb and leads to the dissociation of the co-repressor Brg-1 from E2F-responsive proliferative promoters like cdc6, cdc25 and TS promoters, it was hypothesized that 3a may interfere with this process. […] Binding of E2F1, HDAC1 and HP1 was not affected.

[14] = system: A549 cells; assay: Soft agar assay, A549; format: cell-based, human
Method: as §3, §4

[15] = system: A549-sh8 tumors; assay: A549-sh8 (Rb shRNA) xenograft in nude mice; format: in vivo; settings: 150 mpk orally
Method: as §6, §7

[16] = system: U251MG glioblastoma cell line; assay: BrdU incorporation, S-phase entry, U251MG; format: cell-based; settings: null for p16 and PTEN
Method: as §1

T1 sequence (P06400 whole entry): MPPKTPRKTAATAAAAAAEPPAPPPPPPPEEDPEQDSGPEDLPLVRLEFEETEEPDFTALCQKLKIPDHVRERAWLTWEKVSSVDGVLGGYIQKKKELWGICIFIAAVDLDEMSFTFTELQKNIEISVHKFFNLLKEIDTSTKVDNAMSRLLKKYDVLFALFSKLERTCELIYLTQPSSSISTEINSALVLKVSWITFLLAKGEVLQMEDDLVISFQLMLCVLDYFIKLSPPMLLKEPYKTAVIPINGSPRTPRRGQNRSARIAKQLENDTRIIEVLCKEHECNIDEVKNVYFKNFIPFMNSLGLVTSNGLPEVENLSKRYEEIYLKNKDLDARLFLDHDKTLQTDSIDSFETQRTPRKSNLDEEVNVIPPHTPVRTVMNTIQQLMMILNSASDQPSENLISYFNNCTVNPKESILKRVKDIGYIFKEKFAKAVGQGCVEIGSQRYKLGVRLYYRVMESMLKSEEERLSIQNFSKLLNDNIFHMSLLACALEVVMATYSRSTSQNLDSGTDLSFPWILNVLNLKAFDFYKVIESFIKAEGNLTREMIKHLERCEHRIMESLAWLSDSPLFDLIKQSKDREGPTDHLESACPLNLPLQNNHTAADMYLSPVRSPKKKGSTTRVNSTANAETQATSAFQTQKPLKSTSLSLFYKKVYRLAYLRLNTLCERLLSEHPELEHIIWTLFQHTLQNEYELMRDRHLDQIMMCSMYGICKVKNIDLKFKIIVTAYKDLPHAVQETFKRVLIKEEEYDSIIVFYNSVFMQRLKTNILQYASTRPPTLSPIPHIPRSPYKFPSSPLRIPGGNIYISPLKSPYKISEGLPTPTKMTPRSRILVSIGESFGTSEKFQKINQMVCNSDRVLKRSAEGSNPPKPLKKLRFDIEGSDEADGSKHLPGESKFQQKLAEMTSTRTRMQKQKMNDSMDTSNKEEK
T1 sequence (Q01094 whole entry): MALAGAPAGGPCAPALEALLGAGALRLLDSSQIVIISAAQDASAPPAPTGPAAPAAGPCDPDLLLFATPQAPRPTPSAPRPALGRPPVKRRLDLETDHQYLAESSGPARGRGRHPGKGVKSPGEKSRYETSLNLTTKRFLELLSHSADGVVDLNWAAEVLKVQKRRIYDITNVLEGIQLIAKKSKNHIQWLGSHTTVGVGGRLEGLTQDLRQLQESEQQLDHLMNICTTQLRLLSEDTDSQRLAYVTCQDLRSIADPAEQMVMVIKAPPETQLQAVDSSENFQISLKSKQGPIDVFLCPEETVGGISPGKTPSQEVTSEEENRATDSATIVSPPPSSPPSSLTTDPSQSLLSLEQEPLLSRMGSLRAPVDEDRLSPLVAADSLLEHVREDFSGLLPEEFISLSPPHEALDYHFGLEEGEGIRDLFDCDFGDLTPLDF

## Cl.N=C(N)SCc1ccc(Cl)cc1Cl [Compound 3a]
[1]
  S-phase entry (BrdU), Saos-2: little effect
[2]
  S-phase entry (BrdU), A549 sh6: does not inhibit the proliferation; also recorded: no effect
[3]
  S-phase entry (BrdU), A549 sh8: does not inhibit the proliferation; also recorded: no effect
[4]
  adherence-independent growth in soft agar, H1650: significantly inhibited the growth
[5]
  S-phase entry (BrdU), parental A549: arrests wild-type A549 cells; also recorded: very effective
[6]
  inhibition of proliferation, LNCaP: 86%
[7]
  adherence-independent growth in soft agar, SK-MEL-28: significantly inhibited the growth
[8]
  cyclin D kinase activity: does not inhibit; also recorded: did not affect the kinase activities
[9]
  Rb binding to E2F1: not affected
[10]
  tumor growth, A549-sh6 tumors lacking Rb: unable to inhibit tumor growth; also recorded: did not respond
[11]
  adherence-independent growth in soft agar, PANC1: significantly inhibited the growth
[12]
  level of cyclin D and its association with Rb: tended to reduce the levels of cyclin D as well as its association with Rb; also recorded: reduced
[13]
  Raf-1 binding to E2F-responsive promoters upon serum stimulation: causes the dissociation of Raf-1; also recorded: disrupted
  binding of E2F1, HDAC1 and HP1 to promoters: not affected
  dissociation of co-repressor Brg-1 from promoters: retention of Brg1; also recorded: inhibited
[14]
  adherence-independent growth in soft agar, A549: significantly inhibited the growth
[15]
  tumor growth, A549-sh8 tumors lacking Rb: unable to inhibit tumor growth; also recorded: did not respond
[16]
  S-phase entry, U251MG: inhibited S-phase entry
